Test results: patent US11780843B2, “Compounds active towards nuclear receptors” (NUEVOLUTION A/S, priority 2020, dated 2023)
Where two headings read alike, the source gives them in different places.

Experiments:
plasma IL-17A = experiment: In vivo IL-17A induction in anti-CD3 model in mice; conditions: oral gavage twice daily day 0 to day 3, anti-CD3e induced C57BL/6JRj mice
Procedure: Male C57BL/6JRj mice (7 week old) were purchased from Janvier Labs and housed at the animal facilities of Almirall throughout the study. Animals were allowed to condition for 5 days in their new environment at 22° C.±2° C., 55%±10% relative humidity and 12 h:12 h light:dark cycles. Animals were housed in polycarbonate cages, with free access to water and non-purified stock diet (2014 Teklad Global 14% Protein Rodent Maintenance Diet, Envigo) during the full course of the studies. Care of animals was undertaken in compliance with the European Committee Directive 2010/63/EU, and the Catalan and Spanish law. […]
Plasma levels of IL-17A were measured by ELISA (R&D Systems) according to the manufacturer's instruction. Results were calculated as the percentage of reduction of plasma IL-17A versus the difference between non-induced and anti-CD3e induced groups through the formula: inhibition=100*[1−[(x−mean non-induced)/(mean control vehicle−mean non-induced)]]. The IL-17A inhibition for each treatment can be expressed as the mean for each treatment group±S.E.M. Statistical analysis of data were conducted with one-way ANOVA followed by Dunnett's multiple comparisons test when appropriate. […]

[1] = molecular target: T1, RORγ ligand-binding domain (Homo sapiens, UniProt P51449); experiment: RORγ Reporter Assay (Gal4); format: cell-based
T1 construct: Gal4 (galactose-responsive transcription factor); expressed in transfected cells; host or cells: HEK293, transient co-transfection
T1 sequence (P51449 269-508 limits assumed): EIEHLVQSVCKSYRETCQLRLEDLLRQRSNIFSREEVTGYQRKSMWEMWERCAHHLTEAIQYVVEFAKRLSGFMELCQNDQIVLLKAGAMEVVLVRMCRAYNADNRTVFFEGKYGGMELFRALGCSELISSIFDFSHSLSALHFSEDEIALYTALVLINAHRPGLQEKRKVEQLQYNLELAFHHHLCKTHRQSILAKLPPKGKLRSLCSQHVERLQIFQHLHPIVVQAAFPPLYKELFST
Method in brief: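 HEK293 cells transiently co-transfected with Gal4–RORγ LBD fusion and UAS-luciferase reporter, plated 2 h, then exposed to compound (0.1% DMSO final) for 24 h at 37 °C. Luminescence read; percent reduction vs vehicle fitted to dose-response curves.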

[2] = system: IL-17A secretion in activated PBMCs; experiment: IL-17A secretion in activated PBMCs; format: cell-based; conditions: human PBMCs stimulated with CD3/CD28 Dynabeads for 48 h, absolute IC50
Text: Heparin-treated whole blood from healthy human volunteers was supplied from Hospital de Sant Pau (Barcelona) under the approval of the local ethical review board for human studies (Hospital de Sant Pau, Barcelona, Spain). Human peripheral blood mononuclear cells (PBMCs) were isolated from healthy human volunteers by density gradient centrifugation using the Ficoll-Paque (GE Healthcare). PBMCs were suspended in cell culture medium which consisted on RPMI 1640 medium (Sigma-Aldrich) containing 10% heat inactivated fetal bovine serum (Sigma-Aldrich), 2 mM L-Glutamine (Gibco), 20 mM Hepes (Gibco) and 100 U/mL penicillin (Sigma-Aldrich). Cells were seeded in 384-well plate (DiscoverX), at 40,000 cells per well and cultured 2 h at 37° C. and 5% CO2.
Dose-response curves with compounds were prepared using a 5-fold serial dilution (10 concentrations) in 100% DMSO and further diluted 100-fold in culture medium. Compound solutions (5 μL) were added to the plate containing cells (final DMSO concentration of 0.1%) and incubated for 30 min. Then, cells were stimulated with CD3/CD28 Dynabeads (ThermoFisher, at a bead-to-cell ratio of 1:1) for 48 h at 37° C. and 5% CO2.
IL-17A levels in supernatant were determined by immunoassay using hIL17A QBeads (Intellicyt) and by fluorescence analysis in iQue flow cytometer following the manufacturer's instructions. Inhibition of IL-17A secretion was calculated using the following formula: inhibition=100*[1−[(x−mean basal condition)/(mean top condition—mean basal condition)]]. Activated DMSO-treated cells were used as top condition and activated GNE09461 (10 μM)-treated cells as basal condition.

Th17 cells = experiment: Th17 Assay (IL-17 levels in supernatants of differentiated Th17 cells); format: cell-based; conditions: Homo sapiens, 168 h; naive CD4+ T cells differentiated to Th17 for seven days, IL-17 by ELISA
Procedure: Human peripheral blood mononuclear cells (PBMCs) were isolated from buffy coats of healthy human volunteers using the Ficoll paque PLUS kit (GE Healthcare, cat no 17-1440-02), as instructed by the manufacturer. Naive CD4+ T cells were isolated with Naive CD4+ T cell kit, human (Milteny Biotec, cat no 130-094-131). The following modifications were made to the manufacturer's protocol: 1) Incubation with Biotin-Antibody Cocktail and Anti-Biotin MicroBeads was prolonged to 30 minutes, and 2) Cells were washed with 40 mL of Miltenyi buffer. Differentiation of Th17 cells in anti-CD3 (BD Pharmingen, 5 μg/ml) coated 96-well plates (400,000 cells/well, 160 μl RPMI 1640+10% Fetal Bovine Serum) containing 5 μg/ml anti-CD28 (BD Pharmingen), 10 ng/ml IL-2 (R&D Systems), 2.5 ng/ml TGFβ-1 (R&D Systems), 20 ng/ml IL-10 (R&D Systems), 20 ng/ml IL-6 (R&D Systems), 30 ng/ml IL-23 (R&D Systems), 2.5 μg/ml anti-IL-4 (R&D Systems) and 1 μg/ml anti-IFNγ (R&D Systems) and with test compound during the entire differentiation (or vehicle, 0.1% DMSO for control). Test compounds were tested in triplicates, diluted 1000-fold in medium (final DMSO concentration is 0.1%). […] IL-17 levels in supernatants were measured with ELISA (R&D Systems).

[3] = HEK293 cells, luciferase reporter, 24 h incubation, absolute IC50, read-out: IC50

IC50 [1, 3] | IC50 ([1]; stated as a bound only (Tables 5 a, 6, 7), read-out: Gal4 assay IC50) | IC50 (Th17 cells) | SMILES | Inhibition of IL-17A (%) at 3 mg/kg (plasma IL-17A) | IC50 ([2]; Homo sapiens, PBMC, 48 h) | IC50 [2]
2.2 nM | < 100 nM | – | NC(=O)CN1CC[C@](O)(Cn2ccc3c(N(Cc4ccc(C(F)(F)F)cc4)C4CC4)ncnc32)[C@@H](O)C1 (single isomer, unassigned) [Example L5-1-1-1] | 94% | 3.6 nM | –
15 nM | – | – | NC(=O)CN1CC[C@@H](Cn2ccc3c(N(Cc4ccc(C(F)(F)F)cn4)C4CC4)ncnc32)[C@H](O)C1 (single isomer, unassigned) [Example P6-23-2] | – | – | 98 nM
5 nM | – | – | NC(=O)CN1CC[C@@H](Cn2cnc3c(N(Cc4ccc(C(F)(F)F)cc4)C4CC4)ncnc32)[C@H](O)C1 (single isomer, unassigned) [Example P6-26-2] | – | 65 nM | –
5 nM | – | – | NC(=O)CN1CC[C@@H](Cn2ccc3c(N(Cc4ccc(C(F)(F)F)nc4)C4CC4)ncnc32)[C@H](O)C1 (racemic) [Example P6-16, rac-2-((3R,4R)-4-((4-(cyclopropyl((6-(trifluoromethyl)pyridin-3-yl)methyl)amino)-7H-pyrrolo[2,3-d]pyrimidin-7-yl)methyl)-3-hydroxypiperidin-1-yl)acetamide] | – | 17 nM | –
9.9 nM | – | – | NC(=O)CN1CC[C@@H](Cn2ccc3c(N(Cc4ccc(C(F)(F)F)cn4)C4CC4)ncnc32)[C@H](O)C1 (single isomer, unassigned) [Example P6-23-1] | – | 59 nM | –
1 nM | – | – | NC(=O)CN1CC[C@@H](Cn2cc(F)c3c(N(Cc4ccc(C(F)(F)F)cc4)C4CC4)ncnc32)[C@H](O)C1 (single isomer, unassigned) [Example P6-14-2] | – | – | 1.7 nM

More lines, now with the values behind:

SMILES | IC50 [1, 3] | IC50 ([1]; stated as a bound only (Tables 5 a, 6, 7), read-out: Gal4 assay IC50) | IC50 (Th17 cells) | Inhibition of IL-17A (%) at 3 mg/kg (plasma IL-17A) | IC50 ([2]; Homo sapiens, PBMC, 48 h) | IC50 [2]
CCN(Cc1ccc(C(F)(F)F)cc1F)c1ncnc2c1ccn2C[C@@]1(O)CCN(CC(N)=O)C[C@@H]1O (single isomer, unassigned) [Example L5-3-1-1] | 3 nM | – | – | – | 9.8 nM | –
CCN(Cc1ccc(C(F)(F)F)cc1F)c1ncnc2c1ccn2C[C@@H]1CCN(CC(N)=O)C[C@H]1O (relative stereo) [P6-32″, rel-2-((3R,4R)-4-((4-(ethyl(2-fluoro-4-(trifluoromethyl)benzyl)amino)-7H-pyrrolo[2,3-d]pyrimidin-7-yl)methyl)-3-hydroxypiperidin-1-yl)acetamide] | 2 nM | – | – | – | 8.4 nM | –
N#CC1(Cn2cc(F)c3c(N(Cc4ccc(C(F)(F)F)cc4)C4CC4)ncnc32)CCN(CC(N)=O)CC1 [Example P6-11, 2-(4-cyano-4-((4-(cyclopropyl(4-(trifluoromethyl)benzyl)amino)-5-fluoro-7H-pyrrolo[2,3-d]pyrimidin-7-yl)methyl)piperidin-1-yl)acetamide] | 16 nM | – | – | – | 23 nM | –
NC(=O)CN1CCC(Cn2cc(F)c3c(N(Cc4ccc(C(F)(F)F)cc4)C4CC4)ncnc32)CC1 [Example P6-05, 2-(4-((4-(cyclopropyl(4-(trifluoromethyl)benzyl)amino)-5-fluoro-7H-pyrrolo[2,3-d]pyrimidin-7-yl)methyl)piperidin-1-yl)acetamide] | 62 nM | – | – | – | 20 nM | –
NC(=O)CN1CCC(Cn2ccc3c(N4CCOCC4c4ccc(C(F)(F)F)cc4)ncnc32)CC1 (single isomer, unassigned) [Example P6-02-2] | 30 nM | – | 124 nM | – | – | –
CCN(Cc1ccc(C(F)(F)F)c(F)c1)c1ncnc2c1ccn2C[C@@H]1CCN(CC(N)=O)C[C@H]1O (relative stereo) [P6-31″, rel-2-((3R,4R)-4-((4-(ethyl(3-fluoro-4-(trifluoromethyl)benzyl)amino)-7H-pyrrolo[2,3-d]pyrimidin-7-yl)methyl)-3-hydroxypiperidin-1-yl)acetamide] | 1.9 nM | – | – | – | 6 nM | –
NC(=O)CN1CC[C@@H](Cn2ccc3c(N(Cc4ccc(-n5cccn5)cc4)C4CC4)ncnc32)[C@H](O)C1 (relative stereo) [P6-33″, rel-2-((3R,4R)-4-((4-((4-(1H-pyrazol-1-yl)benzyl)(cyclopropyl)amino)-7H-pyrrolo[2,3-d]pyrimidin-7-yl)methyl)-3-hydroxypiperidin-1-yl)acetamide] | 8.5 nM | – | – | – | 9.9 nM | –
